Calls of active or inactive are those of the source.
Key:
ORF 73 = target: T1, ORF 73 (Human herpesvirus 8, UniProt O40947); assay: inhibitors of C-LANA binding to LBS DNA, dose response, biochemical, fluorescence polarization, cherry-picked samples (AID 504725); set-up: species or system Human gammaherpesvirus 8;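 further: fluorescence polarization of a labeled DNA duplex reporting LANA DNA binding; potency is for inhibitors that block LANA binding to the DNA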
T1 sequence (O40947 whole entry): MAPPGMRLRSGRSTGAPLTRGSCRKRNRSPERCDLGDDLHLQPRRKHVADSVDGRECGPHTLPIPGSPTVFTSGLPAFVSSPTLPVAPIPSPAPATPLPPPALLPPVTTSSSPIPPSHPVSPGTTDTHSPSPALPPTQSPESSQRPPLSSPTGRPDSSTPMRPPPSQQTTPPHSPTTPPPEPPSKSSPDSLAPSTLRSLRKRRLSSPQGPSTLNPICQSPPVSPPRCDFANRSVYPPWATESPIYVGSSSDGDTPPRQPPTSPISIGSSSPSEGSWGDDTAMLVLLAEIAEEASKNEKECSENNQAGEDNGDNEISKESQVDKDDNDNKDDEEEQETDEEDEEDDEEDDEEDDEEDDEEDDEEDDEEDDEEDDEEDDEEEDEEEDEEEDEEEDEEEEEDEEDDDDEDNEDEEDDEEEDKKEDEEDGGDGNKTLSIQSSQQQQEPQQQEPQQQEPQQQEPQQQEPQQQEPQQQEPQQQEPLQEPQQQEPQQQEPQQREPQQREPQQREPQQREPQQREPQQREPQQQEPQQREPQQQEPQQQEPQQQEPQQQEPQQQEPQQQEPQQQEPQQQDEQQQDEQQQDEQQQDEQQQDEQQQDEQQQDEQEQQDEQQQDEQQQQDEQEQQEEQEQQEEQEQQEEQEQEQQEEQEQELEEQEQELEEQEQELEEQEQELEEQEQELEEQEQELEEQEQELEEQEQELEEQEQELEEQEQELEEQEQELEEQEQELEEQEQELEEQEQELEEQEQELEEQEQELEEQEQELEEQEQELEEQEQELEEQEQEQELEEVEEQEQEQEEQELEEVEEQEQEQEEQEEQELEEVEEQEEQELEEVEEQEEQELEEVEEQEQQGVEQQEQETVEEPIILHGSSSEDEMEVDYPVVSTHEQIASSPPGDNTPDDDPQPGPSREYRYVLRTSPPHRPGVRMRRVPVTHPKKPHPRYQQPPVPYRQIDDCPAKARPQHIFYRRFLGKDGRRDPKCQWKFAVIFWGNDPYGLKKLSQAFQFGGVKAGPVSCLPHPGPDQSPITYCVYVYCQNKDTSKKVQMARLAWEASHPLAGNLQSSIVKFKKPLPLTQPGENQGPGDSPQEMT

Keap1/Nrf2 = Keap1/Nrf2 (Homo sapiens, UniProt Q14145); assay: Keap1-Nrf2 protein-protein interaction inhibitors, dose response, biochemical, fluorescence polarization, cherry-picked samples (AID 588683)
Sequence of Keap1/Nrf2 (Q16236 whole entry): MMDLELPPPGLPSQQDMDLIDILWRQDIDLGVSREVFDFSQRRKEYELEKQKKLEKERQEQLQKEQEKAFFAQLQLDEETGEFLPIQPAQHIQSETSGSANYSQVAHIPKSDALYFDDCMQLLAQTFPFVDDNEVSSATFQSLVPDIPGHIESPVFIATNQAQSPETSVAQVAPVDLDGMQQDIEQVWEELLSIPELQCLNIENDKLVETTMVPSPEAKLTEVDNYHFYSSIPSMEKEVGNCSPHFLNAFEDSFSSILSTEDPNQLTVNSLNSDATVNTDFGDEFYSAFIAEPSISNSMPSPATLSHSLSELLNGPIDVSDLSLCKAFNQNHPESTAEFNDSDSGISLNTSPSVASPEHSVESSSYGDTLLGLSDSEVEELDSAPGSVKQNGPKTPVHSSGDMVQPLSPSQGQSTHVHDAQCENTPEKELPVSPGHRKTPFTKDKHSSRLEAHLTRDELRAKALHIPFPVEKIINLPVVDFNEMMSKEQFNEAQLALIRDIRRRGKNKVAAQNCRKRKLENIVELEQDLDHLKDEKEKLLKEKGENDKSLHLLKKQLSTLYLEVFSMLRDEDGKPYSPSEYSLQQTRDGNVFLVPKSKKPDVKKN
Sequence of Keap1/Nrf2 (Q14145 whole entry): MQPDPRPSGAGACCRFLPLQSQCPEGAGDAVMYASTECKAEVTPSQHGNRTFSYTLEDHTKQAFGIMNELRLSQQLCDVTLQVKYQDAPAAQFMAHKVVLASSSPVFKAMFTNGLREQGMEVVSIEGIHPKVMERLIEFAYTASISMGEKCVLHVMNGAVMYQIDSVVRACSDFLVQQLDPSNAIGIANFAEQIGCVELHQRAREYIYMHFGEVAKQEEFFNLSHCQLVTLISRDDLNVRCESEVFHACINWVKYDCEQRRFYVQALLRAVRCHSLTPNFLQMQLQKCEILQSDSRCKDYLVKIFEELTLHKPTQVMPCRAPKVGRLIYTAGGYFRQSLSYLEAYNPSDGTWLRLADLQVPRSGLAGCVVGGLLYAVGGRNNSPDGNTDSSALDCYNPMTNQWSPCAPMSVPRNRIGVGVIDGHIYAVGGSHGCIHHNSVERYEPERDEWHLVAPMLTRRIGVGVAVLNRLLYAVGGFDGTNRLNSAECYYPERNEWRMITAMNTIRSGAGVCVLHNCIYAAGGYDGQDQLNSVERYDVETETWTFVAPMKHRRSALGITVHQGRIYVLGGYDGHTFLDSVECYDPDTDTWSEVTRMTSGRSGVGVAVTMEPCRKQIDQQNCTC

[1] = target: T2, Corticotropin-releasing factor receptor 2/Corticotropin-releasing factor-binding protein (Homo sapiens, UniProt P24387+Q13324); assay: activators of CRF receptor 2 with binding protein – uHTS hits, confirmation (AID 602473); format: functional; details: read-out: EC50_Mean
T2 sequence (Q13324 whole entry): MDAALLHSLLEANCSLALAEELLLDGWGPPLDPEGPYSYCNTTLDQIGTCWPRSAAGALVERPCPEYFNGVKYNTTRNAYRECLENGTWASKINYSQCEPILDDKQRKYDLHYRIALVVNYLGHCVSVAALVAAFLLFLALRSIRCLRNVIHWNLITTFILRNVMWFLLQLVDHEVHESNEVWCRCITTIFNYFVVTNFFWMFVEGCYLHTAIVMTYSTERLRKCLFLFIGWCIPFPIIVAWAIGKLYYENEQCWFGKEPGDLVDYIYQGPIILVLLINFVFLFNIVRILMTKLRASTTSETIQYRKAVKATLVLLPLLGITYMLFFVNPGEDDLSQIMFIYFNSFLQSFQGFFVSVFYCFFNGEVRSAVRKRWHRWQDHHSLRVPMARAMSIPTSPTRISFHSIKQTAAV
T2 sequence (P24387 whole entry): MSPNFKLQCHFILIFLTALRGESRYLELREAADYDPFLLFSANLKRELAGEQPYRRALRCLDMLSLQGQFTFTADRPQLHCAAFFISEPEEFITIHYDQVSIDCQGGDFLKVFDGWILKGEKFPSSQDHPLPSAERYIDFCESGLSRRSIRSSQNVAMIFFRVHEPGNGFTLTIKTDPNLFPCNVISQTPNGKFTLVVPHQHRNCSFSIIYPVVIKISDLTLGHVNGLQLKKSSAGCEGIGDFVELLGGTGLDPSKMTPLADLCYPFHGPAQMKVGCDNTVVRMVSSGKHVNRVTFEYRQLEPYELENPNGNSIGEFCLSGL

[2] = target: T3, Small ubiquitin-related modifier 1 (Homo sapiens, UniProt P63165); assay: inhibitors of SUMO1 partner interactions, dose response, biochemical, FRET (AID 624383); format: functional; details: read-out: IC50_Mean
T3 sequence (P63165 whole entry, the tested form may be a part): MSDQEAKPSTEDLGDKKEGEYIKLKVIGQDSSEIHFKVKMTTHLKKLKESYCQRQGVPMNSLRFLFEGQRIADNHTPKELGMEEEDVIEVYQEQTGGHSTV

[3] = target: T4, Carboxy-terminal domain RNA polymerase II polypeptide A small phosphatase 1 (Homo sapiens, UniProt Q9GZU7); assay: inhibitors of CTDSP1, concentration-response testing, biochemical assay, absorbance-based, actives from ultra-high-throughput screening (AID 540297); format: functional
T4 sequence (Q9GZU7 whole entry): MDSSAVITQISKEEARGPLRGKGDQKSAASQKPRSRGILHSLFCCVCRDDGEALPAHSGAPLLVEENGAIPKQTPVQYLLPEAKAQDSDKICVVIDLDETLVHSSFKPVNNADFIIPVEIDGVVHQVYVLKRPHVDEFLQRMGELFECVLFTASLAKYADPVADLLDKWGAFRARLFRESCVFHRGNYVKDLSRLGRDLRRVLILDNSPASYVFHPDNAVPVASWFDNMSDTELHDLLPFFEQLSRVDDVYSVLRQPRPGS

[4] = target: T3, Small ubiquitin-related modifier 1; assay: inhibitors of SUMO1 peptide binding, dose response, biochemical, fluorescence polarization, uHTS hits (AID 624382); format: functional; details: read-out: IC50_Mean
[5] = target: T5, Apoptotic protease-activating factor 1 (Homo sapiens, UniProt O14727); assay: activation of Apaf-1 mediated apoptosis – fluorescent, uHTS hits, dose response (AID 588554); format: functional
T5 sequence (O14727 whole entry): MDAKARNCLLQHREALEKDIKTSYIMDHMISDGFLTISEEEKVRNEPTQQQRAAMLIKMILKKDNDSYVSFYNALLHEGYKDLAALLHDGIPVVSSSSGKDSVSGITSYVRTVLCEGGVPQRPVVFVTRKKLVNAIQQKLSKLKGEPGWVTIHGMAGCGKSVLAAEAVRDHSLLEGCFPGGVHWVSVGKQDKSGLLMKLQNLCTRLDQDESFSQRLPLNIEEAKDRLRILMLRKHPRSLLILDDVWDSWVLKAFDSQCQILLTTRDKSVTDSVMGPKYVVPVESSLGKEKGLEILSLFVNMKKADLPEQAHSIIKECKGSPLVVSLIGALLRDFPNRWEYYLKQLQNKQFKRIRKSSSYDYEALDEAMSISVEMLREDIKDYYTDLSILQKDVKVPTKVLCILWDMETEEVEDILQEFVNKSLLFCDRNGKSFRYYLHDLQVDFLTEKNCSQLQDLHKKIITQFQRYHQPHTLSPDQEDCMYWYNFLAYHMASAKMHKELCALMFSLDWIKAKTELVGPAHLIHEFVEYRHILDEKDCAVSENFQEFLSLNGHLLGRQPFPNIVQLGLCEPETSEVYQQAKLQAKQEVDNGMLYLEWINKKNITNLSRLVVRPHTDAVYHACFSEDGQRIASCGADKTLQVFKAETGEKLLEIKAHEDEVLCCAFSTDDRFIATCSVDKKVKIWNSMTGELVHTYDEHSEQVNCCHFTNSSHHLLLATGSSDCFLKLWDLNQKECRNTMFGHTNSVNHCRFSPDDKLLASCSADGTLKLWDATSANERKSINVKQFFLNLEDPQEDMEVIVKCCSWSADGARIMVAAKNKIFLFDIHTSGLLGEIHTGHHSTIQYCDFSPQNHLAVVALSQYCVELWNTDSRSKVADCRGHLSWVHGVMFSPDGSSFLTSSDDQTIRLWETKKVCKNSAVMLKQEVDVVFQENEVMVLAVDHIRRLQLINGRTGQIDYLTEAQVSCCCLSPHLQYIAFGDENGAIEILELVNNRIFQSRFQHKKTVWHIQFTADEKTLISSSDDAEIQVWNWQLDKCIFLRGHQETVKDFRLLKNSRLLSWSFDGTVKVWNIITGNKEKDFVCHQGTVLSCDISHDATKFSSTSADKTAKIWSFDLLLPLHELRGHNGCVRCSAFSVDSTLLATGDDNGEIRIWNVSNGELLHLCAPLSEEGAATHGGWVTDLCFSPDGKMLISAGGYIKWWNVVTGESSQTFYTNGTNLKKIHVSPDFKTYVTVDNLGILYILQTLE

[6] = target: DNA dC->dU-editing enzyme APOBEC-3G (Homo sapiens, UniProt Q9HC16); assay: Dose Response confirmation of small molecule APOBEC3G DNA Deaminase Inhibitors via a fluorescence-based single-stranded DNA deaminase assay. [Related pubchem assays (depositor defined):AID493012, AID493028]; format: functional
Sequence of DNA dC->dU-editing enzyme APOBEC-3G (Q9HC16 whole entry): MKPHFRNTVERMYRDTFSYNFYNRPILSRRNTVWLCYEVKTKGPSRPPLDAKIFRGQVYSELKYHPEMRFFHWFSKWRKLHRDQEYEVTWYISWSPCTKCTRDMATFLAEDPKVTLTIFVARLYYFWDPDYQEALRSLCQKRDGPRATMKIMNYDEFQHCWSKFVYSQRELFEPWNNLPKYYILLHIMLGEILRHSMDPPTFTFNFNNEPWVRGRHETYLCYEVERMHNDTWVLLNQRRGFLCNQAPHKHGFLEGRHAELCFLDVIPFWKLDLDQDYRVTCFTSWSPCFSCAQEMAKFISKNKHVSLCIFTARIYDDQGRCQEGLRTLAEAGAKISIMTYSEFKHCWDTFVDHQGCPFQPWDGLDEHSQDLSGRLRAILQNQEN

[7] = target: DNA dC->dU-editing enzyme APOBEC-3A (Homo sapiens, UniProt P31941); assay: APOBEC3A DNA deaminase inhibitors, dose response, biochemical (AID 504722); format: functional
Sequence of DNA dC->dU-editing enzyme APOBEC-3A (P31941 whole entry): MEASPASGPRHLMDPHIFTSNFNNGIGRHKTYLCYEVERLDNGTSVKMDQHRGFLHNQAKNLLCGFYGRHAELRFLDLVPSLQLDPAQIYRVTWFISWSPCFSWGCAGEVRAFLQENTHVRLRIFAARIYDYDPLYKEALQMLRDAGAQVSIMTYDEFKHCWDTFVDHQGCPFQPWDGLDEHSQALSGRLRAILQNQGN

[8] = NIH-3T3 fibroblast cytotoxicity, dose response, cytotoxicity control, cell-based, fluorescence, Alamar Blue, secondary assay (AID 2327); format: functional;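 further: NIH-3T3 mouse fibroblasts cultured with fluconazole at 8 µg/mL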
[9] = C. albicans growth with fluconazole, confirmation, fluorescence, retest (AID 2467); format: functional, cell-based
[10] = HepG2 cell cytotoxicity, dose response, cytotoxicity control for Shn3 inhibitor project, CellTiter-Glo, cherry-picked (AID 624134); format: functional, cell-based
HEK293 [11] = assay: NOD1 signaling inhibitors, primary screen, cell-based, luminescence, uHTS (AID 1578); format: functional; details: Homo sapiens
[12] = target: Nucleotide-binding oligomerization domain-containing protein 2 (Homo sapiens, UniProt Q9HC29); assay: NOD2 signaling inhibitors, cell-based, luminescence, uHTS, HEK293 (AID 1566); format: functional
Sequence of Nucleotide-binding oligomerization domain-containing protein 2 (Q9HC29 whole entry, the tested form may be a part): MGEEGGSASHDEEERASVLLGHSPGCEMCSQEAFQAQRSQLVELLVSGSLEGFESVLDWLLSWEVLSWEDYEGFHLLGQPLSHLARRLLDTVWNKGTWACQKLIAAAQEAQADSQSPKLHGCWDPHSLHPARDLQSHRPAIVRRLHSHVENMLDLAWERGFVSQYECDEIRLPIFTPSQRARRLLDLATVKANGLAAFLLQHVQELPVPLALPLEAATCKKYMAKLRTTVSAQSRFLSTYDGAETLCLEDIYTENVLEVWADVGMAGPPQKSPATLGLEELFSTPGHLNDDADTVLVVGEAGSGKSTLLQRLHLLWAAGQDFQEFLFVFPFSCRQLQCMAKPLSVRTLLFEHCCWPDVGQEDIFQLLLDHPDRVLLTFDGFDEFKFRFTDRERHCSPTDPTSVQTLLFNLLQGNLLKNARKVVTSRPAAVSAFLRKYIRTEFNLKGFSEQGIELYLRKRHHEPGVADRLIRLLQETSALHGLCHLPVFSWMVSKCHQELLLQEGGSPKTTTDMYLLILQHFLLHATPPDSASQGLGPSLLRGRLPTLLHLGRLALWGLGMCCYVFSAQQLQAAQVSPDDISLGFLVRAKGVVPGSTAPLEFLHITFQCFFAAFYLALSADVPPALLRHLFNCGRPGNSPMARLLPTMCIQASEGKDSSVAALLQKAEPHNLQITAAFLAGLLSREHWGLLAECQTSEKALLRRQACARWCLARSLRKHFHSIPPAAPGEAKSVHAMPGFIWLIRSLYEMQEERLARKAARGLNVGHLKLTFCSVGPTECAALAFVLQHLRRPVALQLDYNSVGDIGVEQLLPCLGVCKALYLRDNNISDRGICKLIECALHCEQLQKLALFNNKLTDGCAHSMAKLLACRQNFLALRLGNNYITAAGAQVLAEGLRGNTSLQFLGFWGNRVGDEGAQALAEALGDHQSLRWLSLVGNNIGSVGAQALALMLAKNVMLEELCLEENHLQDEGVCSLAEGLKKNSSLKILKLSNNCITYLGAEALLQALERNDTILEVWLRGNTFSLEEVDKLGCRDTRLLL

HEK293 [13] = assay: cells; format: functional, cell-based; details: Homo sapiens
[14] = Shn3 3'UTR reporter inhibitors, dose response, cell-based, Clone20 osteoblasts, firefly luciferase, cherry-picked (AID 624132); format: functional;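 further: firefly luciferase luminescence from reporter carrying the Shn3 3'UTR in osteoblasts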
[15] = cytotoxicity toward NIH3T3 fibroblasts, dose response, counter-screen, cell-based, ATP luminescence, mouse fibroblasts (AID 2010); format: functional;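 further: cells exposed to compound for about 90 hours before reading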
HEK293 [16] = assay: cells; format: functional, cell-based; details: Homo sapiens; remark: listed apart in the source
HEK293 [17] = assay: cells; format: functional, cell-based; details: Homo sapiens; remark: listed apart in the source
HEK293 [18] = assay: NOD2 signaling inhibitors in MDP-stimulated cells, cell-based, uHTS, luminescence (AID 2001); format: functional; details: Homo sapiens
[19] = target: T6, Heat shock factor protein 1 (Mus musculus, UniProt P38532); assay: HSF1 potentiators in luciferase reporter cells, confirmation, cell-based, NIH3T3, luminescence, dose retest (AID 435004); format: functional;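 further: stress induced by proteasome inhibitor MG132 added 30 min after compound; luciferase reporter driven by HSF1 response element in NIH3T3 cells; actives raise luminescence as potentiators of the MG132 stress response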
T6 sequence (P38532 whole entry): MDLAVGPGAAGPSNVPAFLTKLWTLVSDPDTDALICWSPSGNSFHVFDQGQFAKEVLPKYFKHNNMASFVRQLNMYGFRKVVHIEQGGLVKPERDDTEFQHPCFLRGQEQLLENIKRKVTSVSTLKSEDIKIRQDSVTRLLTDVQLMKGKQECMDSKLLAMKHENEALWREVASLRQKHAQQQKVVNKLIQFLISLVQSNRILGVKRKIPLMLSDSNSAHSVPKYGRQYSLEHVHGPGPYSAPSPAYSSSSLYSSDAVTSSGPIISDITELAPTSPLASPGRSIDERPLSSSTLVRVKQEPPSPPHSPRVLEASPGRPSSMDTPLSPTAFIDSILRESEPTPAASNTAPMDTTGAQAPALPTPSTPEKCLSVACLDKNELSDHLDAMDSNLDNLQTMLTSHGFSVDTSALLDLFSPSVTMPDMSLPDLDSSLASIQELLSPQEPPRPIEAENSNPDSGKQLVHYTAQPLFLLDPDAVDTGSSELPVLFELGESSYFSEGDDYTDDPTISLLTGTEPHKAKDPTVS

[20] = inhibitors of intracellular T. cruzi replication, confirmation, NIH3T3 host cells, beta-gal luminescence (AID 2044); format: functional, cell-based;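 further: intracellular parasites grown in NIH/3T3 mouse fibroblasts as host cells; luminescent beta-galactosidase reporter signal from transgenic T. cruzi replicating inside host cells; inhibitors lower the luminescence signal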
[21] = non-specific cell cytotoxicity, dose response, cytotoxicity control for PAX8 inhibitor project, plate reader, dry powder samples (AID 743021); format: functional, cell-based
[22] = control 3'UTR Renilla luciferase suppression, dose response, counter-screen for Shn3 inhibitor project, cell-based, Clone20-Shn3RL, cherry-picked (AID 624133); format: functional

Structure (SMILES): CCC1(c2ccccc2)NC(=O)N(CC(=O)Nc2ccc(OC)nc2)C1=O (stereo unspecified)
- AC50 (ORF 73): 8.04 µM (active)
- AC50 (Keap1/Nrf2): 5.31 µM (active)
- EC50 [1]: 18.6 µM (active)

Structure (SMILES): C=C(C)C(=O)Nc1cccc(C2=NOC3(C2)C[C@@H](C(N)=O)N(C(=O)c2cc([N+](=O)[O-])cc([N+](=O)[O-])c2C)C3)c1 (stereo partly specified)
- IC50 [2]: 8.54 µM (active)
- IC50 [3]: 4.59 µM (active)
- IC50 [4]: > 66.6 µM (inactive)
- EC50 [5]: 10.8 µM (active)
- IC50 [6]: 14 µM (active)
- IC50 [7]: > 100 µM (inactive)

Structure (SMILES): O=[N+]([O-])c1cccnc1S(=O)(=O)c1ccccc1
- EC50 [8]: 4.24 µM (inconclusive)
- EC50 [9]: 2.63 µM (active)
- AC50 [10]: 51 µM (active)
- EC50 (HEK293 [11]): 12.4 µM (active)
- EC50 [12]: > 20 µM (inactive)
- IC50 (HEK293 [13]): > 20 µM (inactive)
- AC50 [14]: 4.79 µM (active)
- EC50 [15]: 4.16 µM (active)
- IC50 (HEK293 [16]): 2.38 µM (active)
- IC50 (HEK293 [17]): 11.6 µM (active)
- IC50 (HEK293 [18]): 4.56 µM (active)
- EC50 [19]: 11.9 µM (active)
- EC50 [20]: 3.71 µM (active)
- AC50 [21]: 24.2 µM (active)
- AC50 [22]: 5.79 µM (active)

Structure (SMILES): Cc1cc[n+](-c2[n-]c(=O)sc2/C=N/NC(=O)c2ccccc2)cc1C
- AC50 (ORF 73): 13.3 µM (active)
- AC50 (Keap1/Nrf2): 11.8 µM (active)

— ChEMBL document CHEMBL1201862, “PubChem BioAssay data set” (2004)
